Source: patent US20210254056A1, “IDENTIFICATION AND TARGETED MODULATION OF GENE SIGNALING NETWORKS” (CAMP4 THERAPEUTICS CORPORATION, priority 2017, published 2021)
Structures can show the parent of a compound that is named as a salt. Where two headings read alike, the source gives them in different places.

Tests used:
[1] = tested on: hepatocytes; assay: RNA-seq of hepatocytes stimulated with the compounds of Table 68
[2] = tested on: primary human hepatocytes; assay: RNA-seq of primary human hepatocytes treated with 39 small molecules (pilot and validation); conditions: for significant modulation of gene expression: RNA-seq, p-value≤0.05, primary human hepatocytes, the modulated genes are listed in the block; for Number (#) of genes having significantly changed expression: pilot RNA-seq study of Example 2, significance: FPKM≥0.5, log 2(fold change)≥1, q-value ≤0.05
[3] = hepatocytes stimulated with the compound, RNA-seq, significance: FPKM≥1, q-value≤0.05, log 2 fold change≥1.5
[4] = hepatocytes stimulated with the compound, RNA-seq, […]

Row | SMILES | # of genes having significantly altered expression [1, 3] | # of genes having significantly altered expression [1] | also measured
1 | CC1(C)CCC(c2ccc(Cl)cc2)=C(CN2CCN(c3ccc(C(=O)NS(=O)(=O)c4ccc(N[C@H](CCN5CCOCC5)CSc5ccccc5)c(S(=O)(=O)C(F)(F)F)c4)cc3)CC2)C1 [ABT-263] | 1 | – | –
2 | CCCCC/C=C\C/C=C\C/C=C\C/C=C\CCCC(=O)NCCCl [ACEA] | – | 2 | –
3 | COCCOc1cnc2ccn([C@H](C)c3nnc4c(F)cc(-c5cnn(C)c5)cn34)c(=O)c2c1 [AMG337] | 3 | – | –
4 | CN(C)C/C=C/C(=O)Nc1cc2c(Nc3ccc(F)c(Cl)c3)ncnc2cc1O[C@H]1CCOC1 [Afatinib] | 2010 | – | –
5 | S=C(NCc1ccc2c(c1)OCO2)N1CCN(c2ncnc3c2oc2ccccc23)CC1 [Amuvatinib] | 2835 | – | –
6 | CNC(=O)c1ccccc1Sc1ccc2c(/C=C/c3ccccn3)n[nH]c2c1 [Axitinib] | 5 | – | –
7 | CC1(C)CC=C(c2cnc3ccccc3c2)c2cc(C(=O)Nc3ccc(C(=O)O)cc3)ccc21 [BMS 195614] | – | 46 | –
8 | C[C@@]1(C(=O)Nc2ccc(F)nc2)CCCN1c1nc(Nc2cc(C3CC3)n[nH]2)c2cccn2n1 [BMS-754807] | – | 302 | –
9 | C=C(c1ccc(C(=O)O)cc1)c1cc2c(cc1C)C(C)(C)CCC2(C)C [Bexarotene] | 267 | – | –
10 | COc1cc(Nc2c(C#N)cnc3cc(OCCCN4CCN(C)CC4)c(OC)cc23)c(Cl)cc1Cl [Bosutinib] | 2184 | – | –
11 | COCCOCOc1cc2ccc(-c3ccc(C(=O)O)cc3)cc2cc1C12CC3CC(CC(C3)C1)C2 [CD 2665] | – | 1102 | –
12 | Cc1ccccc1N=Nc1ccc(NC(=O)c2ccnn2C)c(C)c1 [CH223191] | – | 198 | –
13 | C=C1/C(=C\C=C2/CCC[C@]3(C)[C@@H]([C@H](C)CCCC(C)(C)O)CC[C@@H]23)C[C@@H](O)C[C@@H]1O [Calcitrol] | 1950 | – | –
14 | CCN(CC)CCCC(C)Nc1ccnc2cc(Cl)ccc12 (centres unmarked) [Chloroquine phosphate] | – | 573 | –
15 | [Cl][Co][Cl] [Cobalt chloride] | – | 1275 | –
16 | C[C@@H](Oc1cc(-c2cnn(C3CCNCC3)c2)cnc1N)c1c(Cl)ccc(F)c1Cl [Crizotinib] | 3265 | – | –
17 | CCCCCCCCCCCC(=O)OC[C@H](COP(=O)([O-])OCC[N+](C)(C)C)OC(=O)CCCCCCCCCCC [DLPC] | – | 4 | –
18 | Cc1nc(Nc2ncc(C(=O)Nc3c(C)cccc3Cl)s2)cc(N2CCN(CCO)CC2)n1 [Dasatinib] | 2970 | – | –
19 | C=C1/C(=C\C=C2/CCC[C@]3(C)[C@@H]([C@H](C)/C=C/C=C/C(O)(CC)CC)CC[C@@H]23)C[C@@H](O)C[C@@H]1O [EB1089] | 68 | – | –
20 | CS[C@H]1SC[C@H]2C(=O)N(C)[C@@H](C(C)C)C(=O)OC[C@@H](NC(=O)c3cnc4ccccc4n3)C(=O)N[C@@H](C)C(=O)N(C)[C@@H]1C(=O)N(C)[C@@H](C(C)C)C(=O)OC[C@@H](NC(=O)c1cnc3ccccc3n1)C(=O)N[C@@H](C)C(=O)N2C [Echinomycin] | – | 7161 | –

Row | SMILES | # of genes having significantly altered expression [1, 3] | # of genes having significantly altered expression [1] | also measured
21 | CCOC(=O)c1cncn1[C@H](C)c1ccccc1 [Etomidate] | – | 2 | –
22 | OCCn1cc(-c2ccc3c(c2)CC/C3=N\O)c(-c2ccncc2)n1 [GDC-0879] | 274 | – | –
23 | COc1cccc(-n2c(=O)[nH]c3cc(Cl)n(-c4ccc(-c5cccc(OC)c5O)cc4)c3c2=O)c1 [GSK621] | – | 5 | –
24 | CCC1=C(C)CN(C(=O)NCCc2ccc(S(=O)(=O)NC(=O)N[C@H]3CC[C@H](C)CC3)cc2)C1=O [Gilmepiride] | – | 39 | –
25 | NCCc1c[nH]cn1 [Histamine] | 20 | – | –
26 | Cc1ccc2nc(NC(=O)CSc3nc4c(c(=O)n3-c3ccccc3)SCC4)sc2c1 [IWP-2] | – | – | # of genes having significantly altered expression [1, 4]: 15
27 | Cn1cc(-c2ccc3nnc(C(F)(F)c4ccc5ncccc5c4)n3n2)cn1 [JNJ-38877605] | – | 64 | –
28 | c1ccc2c(-c3cnn4cc(-c5ccc(N6CCNCC6)cc5)cnc34)ccnc2c1 [LDN193189] | – | 67 | –
29 | Oc1c(F)cc(-c2cnccc2-c2ccc(N3CCOCC3)cc2)cc1F [LJI308] | – | 1 | –
30 | O=c1cc(N2CCOCC2)oc2c(-c3ccccc3)cccc12 [LY294002] | 981 | – | –
31 | Cc1ccc(NC(=O)c2ccc(CN3CCN(C)CC3)cc2)cc1Nc1nccc(-c2cccnc2)n1 [MT-182, Imatinib] | – | – | significant modulation of gene expression [2]: significantly (p-value≤0.05) modulate; Number (#) of genes having significantly changed expression [2]: 31
32 | CC1(C)CC=C(c2ccccc2)c2cc(/C=C/c3ccc(C(=O)O)cc3)ccc21 [MT-232, Bms189453] | – | – | significant modulation of gene expression [2]: significantly (p-value≤0.05) modulate; Number (#) of genes having significantly changed expression [2]: 1
33 | CN1CCC(CNc2ccc3ncc(-c4cccc(OC(F)(F)F)c4)n3n2)CC1 [MT-254, SGI-1776] | – | – | significant modulation of gene expression [2]: significantly (p-value≤0.05) modulate; Number (#) of genes having significantly changed expression [2]: 64
34 | O=C(O)CC[C@H]1CC[C@@](c2cc(F)ccc2F)(S(=O)(=O)c2ccc(Cl)cc2)CC1 [MT-308, MK-0752] | – | – | significant modulation of gene expression [2]: significantly (p-value≤0.05) modulate
35 | NNC(=O)c1ccncc1 [MT-312, Isoniazid] | – | – | significant modulation of gene expression [2]: significantly (p-value≤0.05) modulate; Number (#) of genes having significantly changed expression [2]: 14
36 | c1cc(-c2cnn3cc(-c4ccc(OCCN5CCCCC5)cc4)cnc23)ccn1 [MT-334, Dorsomorphin] | – | – | Number (#) of genes having significantly changed expression [2]: 15
37 | CN(CCOc1ccc(CC2SC(=O)NC2=O)cc1)c1ccccn1 (centres unmarked) [MT-361, Rosiglitazone maleate] | – | – | Number (#) of genes having significantly changed expression [2]: 78
38 | CC(C)c1nc(CN(C)C(=O)N[C@H](C(=O)N[C@@H](Cc2ccccc2)C[C@H](O)[C@H](Cc2ccccc2)NC(=O)OCc2cncs2)C(C)C)cs1 [MT-372, Ritonavir] | – | – | significant modulation of gene expression [2]: significantly (p-value≤0.05) modulate; Number (#) of genes having significantly changed expression [2]: 183
39 | CCOc1ccn(-c2ccc(F)cc2)c(=O)c1C(=O)Nc1ccc(Oc2ccnc(N)c2Cl)c(F)c1 [MT-375, Bms777607] | – | – | significant modulation of gene expression [2]: significantly (p-value≤0.05) modulate; Number (#) of genes having significantly changed expression [2]: 19
40 | CC1=C(/C=C/C(C)=C/C=C/C(C)=C/C(=O)O)C(C)(C)CCC1 [MT-603, Tretinoin (ATRA)] | – | – | significant modulation of gene expression [2]: significantly (p-value≤0.05) modulate; Number (#) of genes having significantly changed expression [2]: 30

Row | SMILES | # of genes having significantly altered expression [1, 3] | # of genes having significantly altered expression [1] | also measured
41 | CCCC(CCC)C(=O)O [MT-625, Valproate] | – | – | Number (#) of genes having significantly changed expression [2]: 4
42 | CNCc1ccc(C)c(NC(=O)c2ccc(Nc3nc(-c4ccccc4)c4ccccc4n3)cc2)c1 [MT-636, Bms833923] | – | – | significant modulation of gene expression [2]: significantly (p-value≤0.05) modulate; Number (#) of genes having significantly changed expression [2]: 66
43 | CC(C)Cc1ccc(C(C)C(=O)O)cc1 (centres unmarked) [MT-662, Ibuprofen] | – | – | significant modulation of gene expression [2]: significantly (p-value≤0.05) modulate; Number (#) of genes having significantly changed expression [2]: 18
44 | Oc1nc(-c2ccc(C(F)(F)F)cc2)nc2c1CSCC2 [MT-713, Xav939] | – | – | significant modulation of gene expression [2]: significantly (p-value≤0.05) modulate; Number (#) of genes having significantly changed expression [2]: 8
45 | c1ccc(-c2[nH]ncc2-c2ccnc3ccccc23)nc1 [MT-740, LY 364947] | – | – | significant modulation of gene expression [2]: significantly (p-value≤0.05) modulate
46 | CO[C@H]1C[C@@H]2CC[C@@H](C)[C@@](O)(O2)C(=O)C(=O)N2CCCC[C@H]2C(=O)O[C@H]([C@H](C)C[C@@H]2CC[C@@H](O)[C@H](OC)C2)CC(=O)[C@H](C)/C=C(\C)[C@@H](O)[C@@H](OC)C(=O)[C@H](C)C[C@H](C)/C=C/C=C/C=C/1C [MT-882, Rapamycin] | – | – | Number (#) of genes having significantly changed expression [2]: 67
47 | CC(=O)Nc1ccc(O)cc1 [MT-922, Acetaminophen (paracetamol)] | – | – | Number (#) of genes having significantly changed expression [2]: 3
48 | CCCCC(C)(C)[C@H](O)/C=C/[C@H]1[C@H](O)CC(=O)[C@@H]1C/C=C\CCCC(=O)O [MT-937, DmPGE2] | – | – | significant modulation of gene expression [2]: significantly (p-value≤0.05) modulate
49 | COc1ccc(C[C@H](NC(C)=O)C(=O)N[C@H]2[C@@H](O)[C@H](n3cnc4c(N(C)C)ncnc43)O[C@@H]2CO)cc1 [MT-993, N-Acetylpurinomycin] | – | – | significant modulation of gene expression [2]: significantly (p-value≤0.05) modulate
50 | Cc1ccc(NC(=O)c2ccc(CN3CCN(C)CC3)cc2)cc1Nc1nc(-c2cccnc2)cs1 [Mastinib] | – | – | # of genes having significantly altered expression [1, 4]: 151
51 | NCC(=O)Nc1ccc(-n2nc(C(F)(F)F)cc2-c2ccc3c(ccc4ccccc43)c2)cc1 [OSU-03012] | 1786 | – | –
52 | COc1ccc2[nH]c([S+]([O-])Cc3ncc(C)c(OC)c3C)nc2c1 (centres unmarked) [Omeprazole] | 61 | – | –
53 | CCNC1(C(N)=O)CCN(c2ncnc3c2nc(-c2ccccc2Cl)n3-c2ccc(Cl)cc2)CC1 [Otenabant] | 36 | – | –
54 | COc1cc2c(cc1OC)-c1c(OC)c(OC)cc3ccnc(c13)C2=O [Oxoglaucine] | 31 | – | –
55 | CCCCCCCCCCCCCCCCOC[C@H](COP(=O)([O-])OCC[N+](C)(C)C)OC(C)=O [PAF-C-16] | – | 7 | –
56 | Cc1[nH]c(/C=C2\C(=O)Nc3ccc(S(=O)(=O)Cc4c(Cl)cccc4Cl)cc32)c(C)c1C(=O)N1CCC[C@@H]1CN1CCCC1 [PHA-665752] | 1767 | – | –
57 | C[C@H]1[C@H]2N(C(=O)CN(C)N2C(=O)NCc2ccccc2)[C@@H](Cc2ccc(OP(=O)(O)O)cc2)C(=O)N1Cc1cccc2cccnc12 [PRI-724] | – | 88 | –
58 | OCc1ccc(-c2ccc(-c3ccc(CO)s3)o2)s1 [RITA (NSC 652287)] | – | 105 | –
